# Measured values taken from PubChem BioAssay AID463204 (Broad Institute, 2010).
# Activity calls are given as the source filed them.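 Rule for the calls: active = AC50 no more than ten times the top concentration tested, that is within one log above it; inconclusive = flat curve fit with activity between 30% and 70%, or invalid poor fit; inactive = AC50 beyond ten times the top tested dose.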
# Test system: S. cerevisiae Mot1-301 ts growth rescue, BacTiter-Glo ATP luminescence
# Assay: growth rescue of Mot1-301 ts yeast, confirmation, SUMOylation pathway inhibitor project, whole organism, S. cerevisiae, Mot1-301 ts mutant, luminescence, dose retest (AID 463204);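 note: growth at restrictive 38.5 degrees C of Mot1-301 OY566 strain; actives raise luminescence by restoring growth of the ts mutant at high temperature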
row,Compound,AC50
1,COc1cc(COc2ccc3c(C)c(CC(=O)O)c(=O)oc3c2C)cc(OC)c1OC,> 42 µM (inactive)
2,CCOC(=O)NC1(Nc2ccc(C)cc2)Oc2ccccc2O1,> 42 µM (inactive)
3,CN1C(=O)C(=Cc2cn(CC(=O)N3CCCC3)c3ccccc23)C(=O)N(C)C1=O,> 42 µM (inactive)
4,COc1ccccc1N(CC(=O)NCC1CCCO1)C(=O)CCC(=O)Nc1cc(C)on1 (stereo not given),> 42 µM (inactive)
5,CCN1C(=O)N(c2ccc(Cl)cc2)C(C)=CC1(C)C,> 42 µM (inactive)
6,COc1ccc(CCNC(=O)C/C(C)=N/NC(=O)COc2ccc(C)cc2Br)cc1OC,> 42 µM (inactive)
7,Cc1cccc(NC(=S)NC(=O)/C=C/c2ccco2)c1,> 42 µM (inactive)
8,COc1cccc2[nH]c(=O)c(-c3ccccc3)cc12,> 42 µM (inactive)
9,CC(=O)c1cccc(NC(=O)CN(c2cccc(F)c2)S(C)(=O)=O)c1,> 42 µM (inactive)
10,Cc1ccc(/C=C/C(=O)c2ccc([N+](=O)[O-])o2)cc1,3.5 µM
11,COc1cc2c(cc1OC)CN(S(=O)(=O)c1cccc(F)c1)CC2,> 42 µM (inactive)
12,CCOc1ccc(Cl)cc1CNc1nnnn1CC,> 42 µM (inactive)
13,CSc1nsc(SCC(=O)Nc2cccc(C(=O)O)c2)n1,> 42 µM (inactive)
14,Cc1ccc(S(=O)(=O)N2CCOCC2)cc1NC(=O)COC(=O)CCC(=O)c1cccs1,> 42 µM (inactive)
15,CN(C(=O)COc1cc(=O)n(C)c2ccccc12)c1ccc(Cl)cc1,> 42 µM (inactive)
16,CCOc1ccc(C(=O)c2cccs2)cc1,> 42 µM (inactive)
17,CCOC(=O)Nc1sc(=S)n(C)c1C,> 42 µM (inactive)
18,CCN(C(=O)COC(=O)c1cc([N+](=O)[O-])ccc1N1CCOCC1)C1CCCCC1,> 42 µM (inactive)
19,COc1ccc(C(=O)Nc2ccccc2C(=O)NCCN2CCOCC2)cc1OC,> 42 µM (inactive)
20,COC(=O)CCC(=O)OC1(C)C(=O)C2=CN(CCc3c[nH]c4ccccc34)C(c3ccc(OC)cc3)=CC2=C(Br)C1=O (stereo not given),> 42 µM (inactive)
21,Cc1ccc(NC(=O)COc2ccccc2C(=O)NCCN(C)C)cc1,> 42 µM (inactive)
22,c1ccc(N2CCN(C3CCSC3)CC2)cc1 (stereo not given),> 42 µM (inactive)
23,O=C(CSc1nc(=O)n2ccccc2n1)N1CCN(c2ccccc2)CC1,> 42 µM (inactive)
24,COc1cc([C@@H]2CC=C(C(=O)O)[C@H](c3ccccc3F)N2S(=O)(=O)c2ccc(C)cc2)cc(OC)c1OC,> 42 µM (inactive)
25,O=C(CCNS(=O)(=O)c1cccc2nsnc12)NCCC1=CCCCC1,> 42 µM (inactive)

row,Compound,AC50
1,O=C(c1ccccc1)C(CN1CCCC1)c1ccccc1 (stereo not given),4.34 µM
2,COCCn1c(SCC(=O)N2CCCC2)nnc1-c1ccoc1C,> 42 µM (inactive)
3,CC1CCN(CCCCOc2cccc(Br)c2)CC1,> 42 µM (inactive)
4,Cc1cc2ncc(C(=O)N=CN(C)C)cn2n1,> 42 µM (inactive)
5,Cn1cnnc1-c1cccc(NS(=O)(=O)c2ccc(N3CCCC3=O)cc2)c1,> 42 µM (inactive)
6,Cc1cc(O)c(/C=N/Nc2cccc(Cl)c2)c(=O)o1,3.95 µM
7,CC(C)c1cc(C(=O)N/N=C/C(Br)=C/c2ccccc2)n[nH]1,6.05 µM
8,COCCN(C(=O)CSc1nnc(-c2ccc(C)cc2)n1N)c1c(N)n(Cc2ccccc2)c(=O)[nH]c1=O,> 42 µM (inactive)
9,COc1ccccc1N1CCN(C(=O)C(=O)N/N=C/c2ccccc2F)CC1,> 42 µM (inactive)
10,O=S(=O)(NCc1ccc(Cl)cc1)c1cnc[nH]1,> 42 µM (inactive)
11,CC(=O)c1ccc2noc(-c3ccc(F)cc3)c2c1,> 42 µM (inactive)
12,COCCCNCC(O)COc1cccc2[nH]c(C)cc12 (stereo not given),> 42 µM (inactive)
13,CS(=O)(=O)N1CCCC(C(=O)NCc2ccco2)C1 (stereo not given),> 42 µM (inactive)
14,O=C(Nc1cccnc1Cl)c1cc2ccccc2o1,> 42 µM (inactive)
15,O=C(COC(=O)C1COc2ccccc2O1)NC1CCS(=O)(=O)C1 (stereo not given),> 42 µM (inactive)
16,CC1CN(C(=O)c2cc([N+](=O)[O-])cc([N+](=O)[O-])c2)CC(C)O1 (stereo not given),> 42 µM (inactive)
17,CCN1CCCC(NC(=O)c2scc3c2CCCC3)C1 (stereo not given),> 42 µM (inactive)
18,CN=C1SC(CC(=O)Nc2sc3c(c2C#N)CCCC3)C(=O)N1C (stereo not given),> 42 µM (inactive)
19,CN(C)C(CNC(=O)CNC(=O)c1ccc(Br)cc1)c1ccccc1 (stereo not given),> 42 µM (inactive)
20,Cc1ccc(CNC(=O)c2ccc(N3CCC4(CC3)CC(c3ccccc3)=NO4)c(NC(=O)c3cccc(C)c3)c2)cc1,> 42 µM (inactive)
21,COc1ccc(NC(=O)CN(C)C(=O)/C=C/c2cn(-c3ccccc3)nc2-c2ccc(F)cc2)cc1,> 42 µM (inactive)
22,COCC(=O)NNC(=O)c1ccccc1OC,> 42 µM (inactive)
23,OCCc1c[nH]c2cc(F)ccc12,> 110 µM (inactive)
24,CCNC(=O)NC1c2ccccc2CSc2ccccc21 (stereo not given),> 42 µM (inactive)
25,CCOP(=O)(OCC)C(NC(=O)c1cccc([N+](=O)[O-])c1)C(Cl)(Cl)Cl (stereo not given),> 42 µM (inactive)

row,Compound,AC50
1,O=C(NCCc1cnccn1)C1CCC(=O)N(Cc2ccc(Cl)cc2)C1 (stereo not given),> 42 µM (inactive)
2,CS(=O)(=O)NCc1ccc(C(=O)NC2CCCCC2)cc1,> 42 µM (inactive)
3,O=C(C1CCCN(S(=O)(=O)c2cnc[nH]2)C1)N1CCN(c2ccc(Cl)cc2)CC1 (stereo not given),> 42 µM (inactive)
4,COc1cccc(-n2c(Cc3cc(=O)[nH]c(=O)[nH]3)nnc2SCc2cccnc2)c1,> 42 µM (inactive)
5,O=C(O)C1C(C(=O)O)C2(Cl)C(Cl)=C(Cl)C1(Cl)C2(Cl)Cl (stereo not given),> 42 µM (inactive)
6,CCn1c(SCc2nc3ccccc3s2)nnc1-c1ccccc1,> 42 µM (inactive)
7,Cc1cccc(-[n+]2c(-c3cccc(Br)c3)[nH]c3nc4ccccc4nc32)c1,> 42 µM (inactive)
8,O=C(CNC(=O)c1ccco1)OCC(=O)c1cccc2ccccc12,> 42 µM (inactive)
9,CCN(CC)c1nc(Nc2ccc(Cl)cc2)nc(OCC#N)n1,> 42 µM (inactive)
10,COc1ccc(-c2csc(NC(=O)C3CSC4(C)CCC(=O)N34)n2)cc1 (stereo not given),> 42 µM (inactive)
11,O=C1NC2(CCCCC2)NN1c1ccccc1,> 42 µM (inactive)
12,O=C(Nc1nnc(-c2ccco2)o1)c1ccc(S(=O)(=O)N2CCCC2)cc1,> 42 µM (inactive)
13,COC(=O)Nc1ccc(S(=O)(=O)N2CCCC(C(=O)NC3CCS(=O)(=O)C3)C2)cc1 (stereo not given),> 42 µM (inactive)
14,O=C(c1ccco1)N1CCN(C(=O)C2Cc3ccccc3CN2S(=O)(=O)c2ccc(F)cc2)CC1 (stereo not given),> 42 µM (inactive)
15,Cc1ccc(N2C(=O)C3N=NN(CC(=O)N4N=C(c5cccc6ccccc56)CC4c4ccccc4)C3C2=O)cc1 (stereo not given),> 21 µM (inactive)
16,COc1ccccc1N1CCN(C(=O)c2ccc(-c3ccccc3)cc2)CC1,> 42 µM (inactive)
17,CC(=O)N(C(C)=O)c1c(C#N)c(C)n(-c2ccccc2)c1C(=O)c1ccccc1,20.4 µM
18,COc1ccc(S(=O)(=O)NCC(=O)N(CC(=O)NCC2CCCO2)c2ccccc2C)cc1 (stereo not given),> 42 µM (inactive)
19,CCNc1ccccc(C(=O)/C=C/c2ccc3c(c2)OCO3)c1=O,> 42 µM (inactive)
20,Cc1ccc(O)c(C)c1,> 42 µM (inactive)
21,COc1ccc(CC(=O)NCCN2CCOCC2)cc1,> 42 µM (inactive)
22,COc1cc(CN2CCC(Oc3cc(C(=O)NC4CC4)ccc3OC)CC2)cc(OC)c1,34.8 µM
23,COc1ccccc1C(=O)NC(=O)COC(=O)Cc1ccccc1[N+](=O)[O-],> 42 µM (inactive)
24,C=CCNC(=O)NC(=O)COC(=O)/C(C#N)=C/c1cc(C)n(CC(C)C)c1C,> 42 µM (inactive)
25,COc1ccc(NC2CC(=O)N(C(C)C)C2=O)cc1 (stereo not given),> 42 µM (inactive)

row,Compound,AC50
1,N[C@@H](Cc1ccc(O)c(I)c1)C(=O)O,> 42 µM (inactive)
2,COC(=O)CNC(=O)CSc1ccccn1,> 42 µM (inactive)
3,O=C(c1ccc(F)cc1)C(CN1CCOCC1)c1ccccc1 (stereo not given),1.3 µM
4,N#Cc1c(-c2ccco2)cc(-c2cccnc2)nc1N,> 42 µM (inactive)
5,CCOc1ccc(C)cc1S(=O)(=O)n1nc(C)cc1C,> 42 µM (inactive)
6,CC[n+]1c(/C=C/N(C)c2ccccc2)n(-c2ccccc2)c2ccc(-c3nc4ccccc4s3)cc21,19.6 µM
7,O=C(C1CCN(S(=O)(=O)N2CCC3(CC2)OCCO3)CC1)N1CCC(Cc2ccccc2)CC1,> 42 µM (inactive)
8,COc1ccccc1/C=C/C(=O)N1CCc2cc(OC)c(OC)cc2C1C (stereo not given),> 42 µM (inactive)
9,Cc1c(NC(=O)c2cc(-c3ccccc3O)on2)c(=O)n(-c2ccccc2)n1C,> 42 µM (inactive)
10,CCCn1c(N)cc(=O)n(CCC)c1=O,> 42 µM (inactive)
11,Cc1[nH]nc2c1C(c1cccs1)C1=C(CC(C)(C)CC1=O)N2 (stereo not given),> 42 µM (inactive)
12,O=C(O)c1ccc(Cl)c(NCc2cccs2)c1,> 42 µM (inactive)
13,COc1ccc(NC(=O)c2cc(C)no2)cc1Cl,> 42 µM (inactive)
14,COc1ccc(-c2cc(C(=O)Nc3cc(C)ccc3O)no2)cc1,> 42 µM (inactive)
15,COc1cc(/C=C(\C#N)C(=O)Nc2ccc(C(=O)O)cc2)ccc1OC(=O)c1cccc(F)c1,> 42 µM (inactive)
16,CC1=C(C)CS(=O)N(S(=O)(=O)c2ccc(Cl)cc2)C1 (stereo not given),3.41 µM
17,CCOP(=O)(Cc1cc(C(=O)CC)c(C)o1)OCC,> 42 µM (inactive)
18,O=C(COC(=O)c1ccc([N+](=O)[O-])s1)c1ccc[nH]1,21 µM
19,COC(=O)c1ccc(N2C(=O)CC(NCc3ccccc3)C2=O)cc1 (stereo not given),> 42 µM (inactive)
20,COc1cc(NC(=O)CCN2CCN(Cc3ccccc3)CC2)cc(OC)c1,> 42 µM (inactive)
21,COc1ccc(CN2CCNC(=O)C2CC(=O)NCc2cn3ccc(C)cc3n2)c(OC)c1 (stereo not given),> 42 µM (inactive)
22,COc1cc(NC(=O)CN2CCN(CC(=O)Nc3ccccc3OC)CC2)cc(OC)c1,> 42 µM (inactive)
23,CCOC(=O)c1c(N)sc(C(=O)N2CCCC(C(N)=O)C2)c1C (stereo not given),> 42 µM (inactive)
24,COc1ccc(N2CCN(C(=O)CNC(=O)Cc3ccc(Cl)cc3)CC2)cc1,> 42 µM (inactive)
25,CCOC(=O)c1[nH]c2ccc(F)cc2c1NC(=O)CCN1CCOCC1,> 42 µM (inactive)
